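1) Cells in 96-well plates. 2) Compound, 48 h, 5 concentrations. 3) Linear interpolation between surrounding doses. 4) Unreached endpoint = highest concentration. At the GI50, growth is halved.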 Activity calls are given as the source filed them. No stated cut-off is given here; in the data, active = GI50 up to about 1.1 µM and inactive = higher.
Experiments:
Experiment in all cases: NCI anticancer screen, dose series, 48 h
HOP-92 = test system: HOP-92
COLO 205 = test system: COLO 205
NCI-H460 = test system: NCI-H460
HCT-15 = test system: HCT-15
HCT-116 = test system: HCT-116
SK-MEL-2 = test system: SK-MEL-2
Malme-3M = test system: Malme-3M
RXF 393 = test system: RXF 393
OVCAR-3 = test system: OVCAR-3
SK-OV-3 = test system: SK-OV-3
UACC-62 = test system: UACC-62
NCI-H23 = test system: NCI-H23
OVCAR-5 = test system: OVCAR-5
HCC 2998 = test system: HCC 2998
SF-539 = test system: SF-539
EKVX = test system: EKVX
LOX IMVI = test system: LOX IMVI
HT-29 = test system: HT-29
SK-MEL-28 = test system: SK-MEL-28
SW-620 = test system: SW-620

Structure (SMILES)	GI50 (HOP-92)	GI50 (COLO 205)	GI50 (NCI-H460)	GI50 (HCT-15)	GI50 (HCT-116)	GI50 (SK-MEL-2)	GI50 (Malme-3M)	GI50 (RXF 393)	GI50 (OVCAR-3)	GI50 (SK-OV-3)	GI50 (UACC-62)	GI50 (NCI-H23)	GI50 (OVCAR-5)	GI50 (HCC 2998)	GI50 (SF-539)	GI50 (EKVX)	GI50 (LOX IMVI)	GI50 (HT-29)	GI50 (SK-MEL-28)	GI50 (SW-620)
C=C(C)[C@@H]1CC[C@@H]2C(=CC[C@]3(C)C([C@H](C)CC/C=C(/C)C(=O)O)CC[C@@]23C)[C@@]1(C)CCC(=O)O (stereo not given in full)	19.2 µM (inactive)	22.6 µM (inactive)	20.4 µM (inactive)	21.3 µM	22.3 µM (inactive)	20.2 µM (inactive)	25.5 µM (inactive)	19.4 µM (inactive)	19.9 µM (inactive)	37.7 µM (inactive)	20.4 µM (inactive)	24 µM (inactive)	30.5 µM (inactive)	18.8 µM (inactive)	30.4 µM (inactive)	36.3 µM (inactive)	19.2 µM (inactive)	21.7 µM (inactive)	27.9 µM (inactive)	29 µM (inactive)
CC(C)C(=O)/C=C/c1c(Cl)cccc1Cl	12.9 µM (inactive)	10.4 µM (inactive)	2.18 µM (inactive)	4.55 µM	1.64 µM (inactive)	2.25 µM (inactive)	4.45 µM (inactive)	5.43 µM (inactive)	2.41 µM (inactive)	3.28 µM (inactive)	6.35 µM (inactive)	2.33 µM (inactive)	3.21 µM (inactive)	15.6 µM (inactive)	3.04 µM (inactive)	13.3 µM (inactive)	2.47 µM (inactive)	2.84 µM (inactive)	5.81 µM (inactive)	2.98 µM (inactive)
c1ccc2c3c(ccc2c1)-c1[nH]ncc1CCO3	27.5 µM (inactive)	37.2 µM (inactive)	25.6 µM (inactive)	20.5 µM	32.4 µM (inactive)	36.1 µM (inactive)	45.7 µM (inactive)	33.3 µM (inactive)	27.7 µM (inactive)	35.8 µM (inactive)	29.9 µM (inactive)	25.2 µM (inactive)	25.8 µM (inactive)	35.6 µM (inactive)	25 µM (inactive)	13.6 µM (inactive)	33.1 µM (inactive)	32.5 µM (inactive)	50.8 µM (inactive)	37.8 µM (inactive)
Cc1nc2ccccc2c(=O)n1Nc1ccc(C(=O)O)cc1	> 100 µM (inactive)	> 100 µM (inactive)	> 100 µM (inactive)	> 100 µM	> 100 µM (inactive)	> 100 µM (inactive)	> 100 µM (inactive)	> 100 µM (inactive)	> 100 µM (inactive)	> 100 µM (inactive)	> 100 µM (inactive)	> 100 µM (inactive)	> 100 µM (inactive)	> 100 µM (inactive)	> 100 µM (inactive)	> 100 µM (inactive)	> 100 µM (inactive)	> 100 µM (inactive)	> 100 µM (inactive)	> 100 µM (inactive)
O=C1NC(=O)C2C3C=CC(C12)C1C2C(=O)NC(=O)C2C31 (stereo not given)	128 µM (inactive)	82.4 µM (inactive)	53.7 µM (inactive)	237 µM	211 µM (inactive)	173 µM (inactive)	187 µM (inactive)	220 µM (inactive)	242 µM (inactive)	98.6 µM (inactive)	107 µM (inactive)	245 µM (inactive)	> 250 µM (inactive)	221 µM (inactive)	191 µM (inactive)	234 µM (inactive)	241 µM (inactive)	177 µM (inactive)	222 µM (inactive)	167 µM (inactive)
COc1ccc(Cc2nn(C3OC(COC(C)=O)C(OC(C)=O)C(OC(C)=O)C3OC(C)=O)c(=S)n(-c3ccc(OC)cc3)c2=O)cc1 (stereo not given)	> 87.5 µM (inactive)	> 100 µM (inactive)	> 100 µM (inactive)	> 100 µM	> 100 µM (inactive)	> 100 µM (inactive)	> 100 µM (inactive)	> 100 µM (inactive)	> 100 µM (inactive)	> 100 µM (inactive)	> 100 µM (inactive)	> 100 µM (inactive)	> 100 µM (inactive)	> 100 µM (inactive)	> 100 µM (inactive)	> 54.3 µM (inactive)	> 100 µM (inactive)	> 100 µM (inactive)	> 100 µM (inactive)	> 100 µM (inactive)
COc1cccc2c(Nc3ccc(S(=O)(=O)Nc4ncccn4)cc3)c3ccc([N+](=O)[O-])cc3nc12	12.4 µM (inactive)	60.7 µM (inactive)	27.7 µM (inactive)	24.7 µM	22.4 µM (inactive)	89.9 µM (inactive)	12.9 µM (inactive)	60.8 µM (inactive)	> 100 µM (inactive)	54.6 µM (inactive)	9.12 µM (inactive)	72.1 µM (inactive)	> 100 µM (inactive)	67 µM (inactive)	37.8 µM (inactive)	> 100 µM (inactive)	30.6 µM (inactive)	57.4 µM (inactive)	> 100 µM (inactive)	63.8 µM (inactive)
